The results in this text go back to US8263598B2, “Substituted sulfonamide compounds” (Gruenenthal GmbH, priority 2008, dated 2012).

In test [1] the target is T1, B1R receptor of rats (rB1R) (Rattus norvegicus, UniProt P97583).
T1 construct: host or cells: CHO K1 cells
T1 sequence (P97583 1-337): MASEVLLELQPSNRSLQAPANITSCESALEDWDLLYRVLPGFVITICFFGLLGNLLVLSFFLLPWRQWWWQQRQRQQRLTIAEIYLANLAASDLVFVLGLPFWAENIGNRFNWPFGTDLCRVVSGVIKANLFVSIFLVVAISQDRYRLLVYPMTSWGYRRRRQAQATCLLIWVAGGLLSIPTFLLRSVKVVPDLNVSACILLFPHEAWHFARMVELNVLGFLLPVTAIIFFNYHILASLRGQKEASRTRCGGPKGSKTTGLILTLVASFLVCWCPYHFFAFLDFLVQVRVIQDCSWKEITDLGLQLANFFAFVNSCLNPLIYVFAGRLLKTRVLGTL
The experiment in a line: FLIPR Ca2+ assay on rat bradykinin 1 receptor (CHO K1 rB1R cells). It is filed as cell-based. Particulars: test substance 10 μM; CHO K1 cells with B1R gene of rats; agonist Des-Arg9-bradykinin 100 nM; compared to maximum achievable inhibition. The essentials:
(§1)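 Values are percent inhibition of agonist-evoked Ca²⁺ influx, measured by Fluo-4 fluorescence peak in FLIPR relative to maximum achievable inhibition. Compound at 10 μM was preincubated 10 min on B1R-transfected CHO K1 cells before challenge with 0.5 nM Lys-Des-Arg9-bradykinin (human) or 100 nM Des-Arg9-bradykinin (rat).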

Test [2] has as its target T2, human B1R receptor (hB1R) (Homo sapiens, UniProt P46663).
T2 construct: host or cells: CHO K1 cells
T2 sequence (P46663 1-353): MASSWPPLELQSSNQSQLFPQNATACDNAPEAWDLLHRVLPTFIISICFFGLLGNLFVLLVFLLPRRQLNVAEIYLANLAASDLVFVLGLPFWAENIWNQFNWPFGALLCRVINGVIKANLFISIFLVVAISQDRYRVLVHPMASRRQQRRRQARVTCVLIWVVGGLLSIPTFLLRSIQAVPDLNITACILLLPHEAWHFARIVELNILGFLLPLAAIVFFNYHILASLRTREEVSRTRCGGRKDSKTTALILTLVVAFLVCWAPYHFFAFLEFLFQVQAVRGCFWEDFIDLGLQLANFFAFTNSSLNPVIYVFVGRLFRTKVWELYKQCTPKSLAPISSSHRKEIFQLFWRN
The experiment in a line: FLIPR Ca2+ assay on human bradykinin 1 receptor (CHO K1 hB1R cells). The test is classed as cell-based. The settings on record: test substance 10 μM; CHO K1 cells with human B1R gene; agonist Lys-Des-Arg9-bradykinin 0.5 nM; compared to maximum achievable inhibition. An outline of the steps: as §1

In the case of `COc1cc(C)c(S(=O)(=O)N(C)CCOCC(=O)N2CCn3cccc3C2C)c(C)c1` (stereo not drawn) [Example 53, 4-methoxy-N,2,6-trimethyl-N-(2-(2-(1-methyl-3,4-dihydropyrrolo[1,2-a]pyrazin-2(1H)-yl)-2-oxoethoxy)ethyl)benzenesulfonamide], the inhibition at 10 µM in test [1] worked out at 99%; in test [2] it was 101%.

With `COc1cc(C)c(S(=O)(=O)N(C)CCOCC(=O)N2CCn3cccc3C2c2cccnc2)c(C)c1` (stereo not drawn) [Example 54, 4-methoxy-N,2,6-trimethyl-N-(2-(2-oxo-2-(1-(pyridin-3-yl)-3,4-dihydropyrrolo[1,2-a]pyrazin-2(1H)-yl)ethoxy)ethyl)benzenesulfonamide], the inhibition at 10 µM was 93% in test [1] and 98% in test [2].

Turning to `COc1cc(C)c(S(=O)(=O)N(C)CCOCC(=O)N2CCn3cccc3C2c2ccc(Cl)nc2)c(C)c1` (stereo not drawn) [Example 55, N-(2-(2-(1-(6-chloropyridin-3-yl)-3,4-dihydropyrrolo-[1,2-a]pyrazin-2(1H)-yl)-2-oxoethoxy)ethyl)-4-methoxy-N,2,6-trimethylbenzenesulfonamide], the inhibition at 10 µM in test [1] worked out at 99%; in test [2], 100%.

Turning to `COc1cc(C)c(S(=O)(=O)N(C)CCOCC(=O)N2CCn3ccnc3C2)c(C)c1` [Example 56, N-(2-(2-(5,6-dihydroimidazo[1,2-a]pyrazin-7(8H)-yl)-2-oxoethoxy)ethyl)-4-methoxy-N,2,6-trimethylbenzenesulfonamide], the inhibition at 10 µM in test [1] stood at 97%; in test [2], 85%.

Regarding `COc1cc(C)c(S(=O)(=O)N(C)CCOCC(=O)N2CCn3cccc3C2c2ccc(F)c(F)c2)c(C)c1` (stereo not drawn) [Example 57, N-(2-(2-(1-(3,4-difluorophenyl)-3,4-dihydropyrrolo[1,2-a]pyrazin-2(1H)-yl)-2-oxoethoxy)ethyl)-4-methoxy-N,2,6-trimethylbenzenesulfonamide], the results for the inhibition at 10 µM in test [1] and in test [2] were 99% and 102%, respectively.

Consider `COc1cc(C)c(S(=O)(=O)N(C)CCOCC(=O)N2CCn3cccc3C2c2ccc(C)c(C)c2)c(C)c1` (stereo not drawn) [Example 58, N-(2-(2-(1-(3,4-dimethylphenyl)-3,4-dihydropyrrolo[1,2-a]pyrazin-2(1H)-yl)-2-oxoethoxy)ethyl)-4-methoxy-N,2,6-trimethylbenzenesulfonamide], for which the inhibition at 10 µM in test [1] worked out at 97%; in test [2], 102%.

Turning to `COc1cc(C)c(S(=O)(=O)N(C)CCOCC(=O)N2CCn3cccc3C2c2cccc(F)c2)c(C)c1` (stereo not drawn) [Example 59, N-(2-(2-(1-(3-fluorophenyl)-3,4-dihydropyrrolo[1,2-a]pyrazin-2(1H)-yl)-2-oxoethoxy)ethyl)-4-methoxy-N,2,6-trimethylbenzenesulfonamide], the inhibition at 10 µM was 99% in test [1] and 95% in test [2].

In the case of `COc1cc(C)c(S(=O)(=O)N(C)CCOCC(=O)N2CCn3cccc3C2c2cccs2)c(C)c1` (stereo not drawn) [Example 60, 4-Methoxy-N,2,6-trimethyl-N-(2-(2-oxo-2-(1-(thiophen-2-yl)-3,4-dihydropyrrolo[1,2-a]pyrazin-2(1H)-yl)ethoxy)ethyl)benzenesulfonamide], the inhibition at 10 µM in test [1] turned out to be 98%; in test [2] it was 100%.

As to `COc1cc(C)c(S(=O)(=O)N(C)CCOCC(=O)N2CCn3cccc3C2c2cccc(C(F)(F)F)c2)c(C)c1` (stereo not drawn) [Example 61, 4-methoxy-N,2,6-trimethyl-N-(2-(2-oxo-2-(1-(3-(trifluoromethyl)phenyl)-3,4-dihydropyrrolo[1,2-a]pyrazin-2(1H)-yl)ethoxy)ethyl)benzenesulfonamide], the values for the inhibition at 10 µM in test [1] and in test [2] were 99% and 100%, respectively.

Turning to `COc1cccc(C2c3cccn3CCN2C(=O)COCCN(C)S(=O)(=O)c2c(C)cc(OC)cc2C)c1` (stereo not drawn) [Example 62, 4-methoxy-N-(2-(2-(1-(3-methoxyphenyl)-3,4-dihydropyrrolo[1,2-a]pyrazin-2(1H)-yl)-2-oxoethoxy)ethyl)-N,2,6-trimethylbenzenesulfonamide], the values for the inhibition at 10 µM in test [1] and in test [2] were 98% and 101%, respectively.

For `COc1cc(C)c(S(=O)(=O)N(C)CCOCC(=O)N2CCn3cccc3C2c2ccc(C(F)(F)F)cc2F)c(C)c1` (stereo not drawn) [Example 63, N-(2-(2-(1-(2-fluoro-4-(trifluoromethyl)phenyl)-3,4-dihydropyrrolo[1,2-a]pyrazin-2(1H)-yl)-2-oxoethoxy)ethyl)-4-methoxy-N,2,6-trimethylbenzene-sulfonamide], the inhibition at 10 µM amounted to 100% in test [1] and 102% in test [2].

Turning to `COc1cc(C)c(S(=O)(=O)N(C)CCOCC(=O)N2CCn3cccc3C2c2ccc(C(C)(C)C)cc2)c(C)c1` (stereo not drawn) [Example 64, N-(2-(2-(1-(4-tert-butylphenyl)-3,4-dihydropyrrolo[1,2-a]pyrazin-2(1H)-yl)-2-oxoethoxy)ethyl)-4-methoxy-N,2,6-trimethylbenzenesulfonamide], the inhibition at 10 µM in test [1] amounted to 99%; in test [2], 100%.

As for `Cc1cc(C)c(S(=O)(=O)N(C)CCOCC(=O)N2CCn3cccc3C2C(C)(C)C)c(C)c1` (stereo not drawn) [Example 65, N-(2-(2-(1-tert-butyl-3,4-dihydropyrrolo[1,2-a]pyrazin-2(1H)-yl)-2-oxoethoxy)ethyl)-N,2,4,6-tetramethylbenzenesulfonamide], the inhibition at 10 µM amounted to 99% in test [1] and 101% in test [2].

For `Cc1cc(C)c(S(=O)(=O)N(C)CCOCC(=O)N2CCn3cccc3C2C)c(C)c1` (stereo not drawn) [Example 66, N,2,4,6-tetramethyl-N-(2-(2-(1-methyl-3,4-dihydropyrrolo[1,2-a]pyrazin-2(1H)-yl)-2-oxoethoxy)ethyl)benzenesulfonamide], the inhibition at 10 µM in test [1] amounted to 92%; in test [2], 87%.

Consider `Cc1cc(C)c(S(=O)(=O)N(C)CCOCC(=O)N2CCn3cccc3C2c2cccnc2)c(C)c1` (stereo not drawn) [Example 67, N,2,4,6-tetramethyl-N-(2-(2-oxo-2-(1-(pyridin-3-yl)-3,4-dihydropyrrolo[1,2-a]pyrazin-2(1H)-yl)ethoxy)ethyl)benzenesulfonamide], for which the inhibition at 10 µM in test [1] came to 100%; in test [2], 99%.

For the molecule `Cc1cc(C)c(S(=O)(=O)N(C)CCOCC(=O)N2CCn3cccc3C2c2ccc(Cl)nc2)c(C)c1` (stereo not drawn) [Example 68, N-(2-(2-(1-(6-chloropyridin-3-yl)-3,4-dihydropyrrolo[1,2-a]pyrazin-2(1H)-yl)-2-oxoethoxy)ethyl)-N,2,4,6-tetramethylbenzenesulfonamide], the inhibition at 10 µM in test [1] came to 100%; in test [2], 101%.

Take `COc1ccc(C2c3cccn3CCN2C(=O)COCCN(C)S(=O)(=O)c2c(C)cc(C)cc2C)cc1` (stereo not drawn) [Example 69, N-(2-(2-(1-(4-methoxyphenyl)-3,4-dihydropyrrolo[1,2-a]pyrazin-2(1H)-yl)-2-oxoethoxy)ethyl)-N,2,4,6-tetramethylbenzenesulfonamide]: the inhibition at 10 µM came out at 100% in test [1] and 101% in test [2].

As to `Cc1cc(C)c(S(=O)(=O)N(C)CCOCC(=O)N2CCn3cccc3C2c2ccccc2)c(C)c1` (stereo not drawn) [Example 70, N,2,4,6-tetramethyl-N-(2-(2-oxo-2-(1-phenyl-3,4-dihydropyrrolo[1,2-a]pyrazin-2(1H)-yl)ethoxy)ethyl)benzenesulfonamide], the inhibition at 10 µM in test [1] was 99%; in test [2], 101%.
